Measured values: ChEMBL document CHEMBL1201862, “PubChem BioAssay data set” (2004)
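Cells were grown in 96-well plates and exposed to each compound for 48 hours at five concentrations; endpoints were interpolated linearly between bracketing concentrations, or set to the highest concentration if not reached. GI50 = concentration required for 50% inhibition of growth.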 Calls of active or inactive are those of the source. Cut-off read from the data, not from the text of the source: active = GI50 up to about 1.1 µM and inactive = higher.

Key:
Test in all cases: NCI anticancer screen, dose series, 48 h
SNB-75 = tested on: SNB-75
A549 = tested on: A549
CCRF-CEM = tested on: CCRF-CEM
NCI-H226 = tested on: NCI-H226
MOLT-4 = tested on: MOLT-4
NCI-H23 = tested on: NCI-H23
A498 = tested on: A498
Malme-3M = tested on: Malme-3M
RXF 393 = tested on: RXF 393
SK-MEL-2 = tested on: SK-MEL-2
M14 = tested on: M14
HCC 2998 = tested on: HCC 2998
TK-10 = tested on: TK-10
OVCAR-5 = tested on: OVCAR-5
SK-MEL-5 = tested on: SK-MEL-5
SK-OV-3 = tested on: SK-OV-3
NCI/ADR-RES = tested on: NCI/ADR-RES
786-0 = tested on: 786-0
MDA-MB-231 = tested on: MDA-MB-231
MDA-MB-435 = tested on: MDA-MB-435

Measured: GI50

NCCCCNCCCNC(=O)c1nc(-c2csc(CCN)n2)sc1Cl
inactive: SNB-75 > 100 µM | A549 > 100 µM | CCRF-CEM > 100 µM | NCI-H226 > 100 µM | MOLT-4 > 100 µM | NCI-H23 > 100 µM | A498 > 100 µM | Malme-3M > 100 µM | RXF 393 > 100 µM | SK-MEL-2 > 100 µM | M14 > 100 µM | HCC 2998 > 100 µM | TK-10 > 100 µM | OVCAR-5 > 100 µM | SK-MEL-5 > 100 µM | SK-OV-3 > 100 µM

CN(C)C(=O)N(CCCl)N=O
inactive: SNB-75 > 63.7 µM | A549 > 100 µM | CCRF-CEM > 100 µM | NCI-H226 > 10 µM | MOLT-4 > 100 µM | NCI-H23 > 100 µM | A498 > 100 µM | Malme-3M > 100 µM | RXF 393 > 100 µM | SK-MEL-2 > 100 µM | HCC 2998 > 100 µM | OVCAR-5 > 100 µM | NCI/ADR-RES > 100 µM | SK-MEL-5 > 100 µM | SK-OV-3 > 100 µM

CCCCc1nccc2c(C)c3[nH]c4ccccc4c3cc12
inactive: SNB-75 5.93 µM | A549 3.87 µM | CCRF-CEM 2.85 µM | NCI-H226 7.57 µM | MOLT-4 1.98 µM | NCI-H23 3.66 µM | A498 4.67 µM | Malme-3M 6.04 µM | RXF 393 2.22 µM | SK-MEL-2 3.88 µM | HCC 2998 3.44 µM | OVCAR-5 6.44 µM | NCI/ADR-RES 1.71 µM | SK-MEL-5 2.24 µM | SK-OV-3 5.81 µM

COC(=O)C1=C(C[S+]([O-])c2ccccc2[N+](=O)[O-])ON(C)C1c1ccccc1 (stereo unspecified)
inactive: SNB-75 24.8 µM | A549 47.2 µM | CCRF-CEM 10.5 µM | NCI-H226 37.8 µM | MOLT-4 31 µM | NCI-H23 > 100 µM | A498 > 100 µM | Malme-3M > 100 µM | 786-0 40.6 µM | RXF 393 25.4 µM | SK-MEL-2 62.1 µM | M14 94 µM | HCC 2998 15.8 µM | TK-10 35.7 µM | OVCAR-5 > 100 µM | SK-MEL-5 38.8 µM | SK-OV-3 > 100 µM

C[n+]1c2ccccc2c(NC(CCCNC(=N)N)C(=O)O)c2ccccc21 (stereo unspecified)
inactive: SNB-75 > 100 µM | A549 > 100 µM | NCI-H226 > 100 µM | MOLT-4 > 100 µM | NCI-H23 > 100 µM | A498 > 100 µM | Malme-3M > 100 µM | 786-0 > 100 µM | RXF 393 > 100 µM | SK-MEL-2 > 100 µM | M14 > 100 µM | HCC 2998 > 100 µM | TK-10 > 100 µM | OVCAR-5 > 100 µM | SK-MEL-5 85.9 µM | SK-OV-3 > 100 µM

O=C1C(Cl)=C(Cl)C(=O)N1C1C2CC3CC(C2)CC1C3 (stereo unspecified)
inactive: SNB-75 > 100 µM | A549 > 100 µM | CCRF-CEM 19.3 µM | NCI-H226 > 100 µM | MOLT-4 21.4 µM | NCI-H23 > 100 µM | A498 > 100 µM | Malme-3M > 100 µM | 786-0 > 100 µM | RXF 393 94.6 µM | SK-MEL-2 > 100 µM | M14 > 100 µM | HCC 2998 > 100 µM | TK-10 > 100 µM | OVCAR-5 > 100 µM | SK-MEL-5 > 100 µM | SK-OV-3 > 100 µM

CP(C)(=S)P(C)(C)=S
inactive: SNB-75 > 100 µM | A549 > 100 µM | CCRF-CEM > 100 µM | NCI-H226 > 100 µM | MOLT-4 > 100 µM | NCI-H23 > 100 µM | Malme-3M > 100 µM | 786-0 > 100 µM | RXF 393 > 100 µM | SK-MEL-2 > 100 µM | M14 > 100 µM | HCC 2998 > 100 µM | TK-10 > 100 µM | MDA-MB-231 > 100 µM | OVCAR-5 > 100 µM | NCI/ADR-RES > 100 µM | SK-MEL-5 > 100 µM | SK-OV-3 > 100 µM

O=C1OC(c2ccccc2)=N/C1=C/NC(Cc1c[nH]c2ccccc12)C(=O)O (stereo unspecified)
inactive: SNB-75 69.7 µM | A549 > 100 µM | CCRF-CEM > 100 µM | NCI-H226 > 100 µM | MOLT-4 > 100 µM | NCI-H23 > 100 µM | A498 > 100 µM | Malme-3M > 100 µM | 786-0 > 100 µM | RXF 393 > 100 µM | SK-MEL-2 > 100 µM | M14 > 100 µM | HCC 2998 > 100 µM | TK-10 > 100 µM | OVCAR-5 > 100 µM | SK-MEL-5 > 100 µM | SK-OV-3 > 100 µM

CC/C(SC)=[N+](\C)[O-]
inactive: SNB-75 > 67.9 µM | A549 > 100 µM | CCRF-CEM 15.5 µM | NCI-H226 > 100 µM | MOLT-4 32.7 µM | NCI-H23 > 100 µM | A498 > 100 µM | Malme-3M > 100 µM | 786-0 > 100 µM | RXF 393 > 100 µM | SK-MEL-2 > 100 µM | M14 > 100 µM | HCC 2998 > 100 µM | TK-10 > 100 µM | OVCAR-5 > 100 µM | SK-MEL-5 > 100 µM | SK-OV-3 > 100 µM

CC1=NOC(=O)/C1=C/c1ccc([N+](=O)[O-])cc1
inactive: SNB-75 > 100 µM | A549 > 100 µM | CCRF-CEM > 100 µM | NCI-H226 > 100 µM | MOLT-4 > 100 µM | NCI-H23 > 100 µM | A498 > 100 µM | Malme-3M > 100 µM | 786-0 > 100 µM | RXF 393 > 100 µM | SK-MEL-2 > 100 µM | M14 > 100 µM | HCC 2998 > 100 µM | TK-10 > 100 µM | OVCAR-5 > 100 µM | SK-MEL-5 > 100 µM | SK-OV-3 > 100 µM

Clc1cccc(N/N=N/c2ccc(-c3nc4ccccc4s3)cc2)c1
inactive: SNB-75 30.3 µM | A549 82.4 µM | CCRF-CEM 21 µM | NCI-H226 94.8 µM | MOLT-4 18.4 µM | NCI-H23 24.5 µM | A498 > 100 µM | Malme-3M 26.6 µM | 786-0 22.2 µM | RXF 393 27.2 µM | SK-MEL-2 21.2 µM | M14 34.8 µM | HCC 2998 64.4 µM | TK-10 94.6 µM | OVCAR-5 > 100 µM | NCI/ADR-RES 27.9 µM | SK-MEL-5 25.4 µM | SK-OV-3 42.3 µM | MDA-MB-435 30.6 µM

O=C1NC2CCC(C2)C1c1ccccc1 (stereo unspecified)
inactive: SNB-75 > 100 µM | A549 > 100 µM | CCRF-CEM > 100 µM | NCI-H226 > 100 µM | MOLT-4 > 100 µM | NCI-H23 > 100 µM | A498 > 100 µM | Malme-3M > 100 µM | 786-0 > 100 µM | RXF 393 > 100 µM | M14 > 100 µM | HCC 2998 > 100 µM | TK-10 > 100 µM | OVCAR-5 > 100 µM | SK-MEL-5 > 100 µM | SK-OV-3 > 100 µM

CC1=C(O)C(=O)c2cn(C)cc2C1=O
inactive: SNB-75 > 100 µM | A549 > 100 µM | CCRF-CEM > 100 µM | NCI-H226 > 100 µM | MOLT-4 > 100 µM | NCI-H23 > 100 µM | A498 > 100 µM | Malme-3M > 100 µM | 786-0 > 100 µM | RXF 393 > 100 µM | SK-MEL-2 > 100 µM | M14 > 100 µM | HCC 2998 > 100 µM | TK-10 > 100 µM | OVCAR-5 > 100 µM | SK-MEL-5 > 100 µM | SK-OV-3 > 100 µM

O=S1(=O)C(=C(c2ccccc2)c2ccccc2)S(=O)(=O)c2ccccc21
inactive: SNB-75 20.2 µM | A549 > 100 µM | CCRF-CEM > 100 µM | NCI-H226 > 60.3 µM | MOLT-4 > 100 µM | NCI-H23 > 63.2 µM | A498 > 74.3 µM | Malme-3M 53.1 µM | RXF 393 34.1 µM | SK-MEL-2 > 100 µM | HCC 2998 97.1 µM | OVCAR-5 > 100 µM | NCI/ADR-RES > 100 µM | SK-MEL-5 > 89.7 µM | SK-OV-3 > 56.5 µM

CCC12CCC(O)C1N(C)CCC2Sc1ccccc1 (stereo unspecified)
inactive: SNB-75 24.8 µM | A549 > 100 µM | CCRF-CEM 77.4 µM | NCI-H226 23.4 µM | MOLT-4 28.5 µM | NCI-H23 > 100 µM | A498 > 100 µM | Malme-3M 35.2 µM | 786-0 > 100 µM | RXF 393 > 100 µM | SK-MEL-2 > 100 µM | M14 > 100 µM | HCC 2998 29.9 µM | TK-10 > 100 µM | SK-MEL-5 33 µM | SK-OV-3 > 100 µM

CNc1ccc2ncccc2c1[N+](=O)[O-]
inactive: SNB-75 > 100 µM | A549 > 100 µM | CCRF-CEM > 100 µM | NCI-H226 > 100 µM | MOLT-4 > 100 µM | NCI-H23 > 100 µM | A498 > 100 µM | Malme-3M > 100 µM | 786-0 > 100 µM | RXF 393 > 100 µM | SK-MEL-2 > 100 µM | M14 > 100 µM | HCC 2998 > 100 µM | TK-10 > 100 µM | OVCAR-5 > 100 µM | SK-MEL-5 > 100 µM

O=C1C2C3C=CC(C2C(=O)N1CO)C1C2C(=O)N(CO)C(=O)C2C31 (stereo unspecified)
inactive: SNB-75 70.8 µM | A549 > 54.2 µM | CCRF-CEM 23.6 µM | NCI-H226 > 100 µM | MOLT-4 74.1 µM | NCI-H23 > 100 µM | A498 > 100 µM | Malme-3M > 100 µM | 786-0 > 44 µM | RXF 393 > 81.7 µM | SK-MEL-2 > 100 µM | M14 > 100 µM | HCC 2998 > 100 µM | TK-10 > 100 µM | OVCAR-5 > 100 µM | SK-MEL-5 > 83 µM | SK-OV-3 > 100 µM
